In the supplement of paper PMC11451515:

Tested on: P12-Ichikawa
Test: cell viability relative to DMSO control; higher = less cytotoxic
Conditions: 48 h
In short: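 NOMO1, SEM and P12-Ichikawa leukemia cells spent at least four passages adapting to each medium before use. They were seeded at 500 cells/well (NOMO1, SEM) or 1000 cells/well (P12-Ichikawa) in 5 μl in 1536-well plates and pin-dosed with library compounds in DMSO at 11 threefold steps from 47 μM down to 0.79 nM. After 48 h at 37°C, CellTiter-Glo One luminescence was read. Viability is reported as a percentage of the DMSO wells on each plate, with cell-free wells as background.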

[1] = HPLM + 10% dialyzed FBS, 0.000781 µM
[2] = HPLM + 10% dialyzed FBS, 0.00234 µM
[3] = HPLM + 10% dialyzed FBS, 0.00702 µM
[4] = HPLM + 10% dialyzed FBS, 0.0211 µM
[5] = HPLM + 10% dialyzed FBS, 0.0632 µM
[6] = HPLM + 10% dialyzed FBS, 0.19 µM
[7] = HPLM + 10% dialyzed FBS, 0.569 µM
[8] = HPLM + 10% dialyzed FBS, 1.71 µM
[9] = HPLM + 10% dialyzed FBS, 5.12 µM
[10] = HPLM + 10% dialyzed FBS, 15.4 µM
[11] = HPLM + 10% dialyzed FBS, 46.1 µM
[12] = RPMI 5 mM glucose + 10% FBS, 0.000781 µM
[13] = RPMI 5 mM glucose + 10% FBS, 0.00234 µM
[14] = RPMI 5 mM glucose + 10% FBS, 0.00702 µM
[15] = RPMI 5 mM glucose + 10% FBS, 0.0211 µM
[16] = RPMI 5 mM glucose + 10% FBS, 0.0632 µM
[17] = RPMI 5 mM glucose + 10% FBS, 0.19 µM
[18] = RPMI 5 mM glucose + 10% FBS, 0.569 µM
[19] = RPMI 5 mM glucose + 10% FBS, 1.71 µM
[20] = RPMI 5 mM glucose + 10% FBS, 5.12 µM
[21] = RPMI 5 mM glucose + 10% FBS, 15.4 µM
[22] = RPMI 5 mM glucose + 10% FBS, 46.1 µM
[23] = RPMI 5 mM glucose + 10% dialyzed FBS, 0.000781 µM
[24] = RPMI 5 mM glucose + 10% dialyzed FBS, 0.00234 µM
[25] = RPMI 5 mM glucose + 10% dialyzed FBS, 0.00702 µM
[26] = RPMI 5 mM glucose + 10% dialyzed FBS, 0.0211 µM
[27] = RPMI 5 mM glucose + 10% dialyzed FBS, 0.0632 µM
[28] = RPMI 5 mM glucose + 10% dialyzed FBS, 0.19 µM
[29] = RPMI 5 mM glucose + 10% dialyzed FBS, 0.569 µM
[30] = RPMI 5 mM glucose + 10% dialyzed FBS, 1.71 µM
[31] = RPMI 5 mM glucose + 10% dialyzed FBS, 5.12 µM
[32] = RPMI 5 mM glucose + 10% dialyzed FBS, 15.4 µM
[33] = RPMI 5 mM glucose + 10% dialyzed FBS, 46.1 µM

Compound	cell viability [1]	cell viability [2]	cell viability [3]	cell viability [4]	cell viability [5]	cell viability [6]	cell viability [7]	cell viability [8]	cell viability [9]	cell viability [10]	cell viability [11]	cell viability [12]	cell viability [13]	cell viability [14]	cell viability [15]	cell viability [16]	cell viability [17]	cell viability [18]	cell viability [19]	cell viability [20]	cell viability [21]	cell viability [22]	cell viability [23]	cell viability [24]	cell viability [25]	cell viability [26]	cell viability [27]	cell viability [28]	cell viability [29]	cell viability [30]	cell viability [31]	cell viability [32]	cell viability [33]
O=C1c2cccc(O)c2C(=O)c2c(O)cc(CO)cc21	97.1%	100%	99.9%	98.1%	92.7%	91.2%	95.2%	92.8%	91.9%	90.7%	93.4%	89.6%	90.1%	93.7%	98%	92.3%	97%	88.2%	97.1%	92.1%	96.5%	104%	91.1%	92.2%	91%	93.4%	91.8%	91.5%	89%	86.7%	88%	88.3%	91.3%
COc1ccc2cc(-c3[nH]c(-c4ccc([S+](C)[O-])cc4)nc3-c3ccncc3)ccc2c1 (stereo unspecified)	113%	114%	116%	105%	117%	119%	124%	120%	123%	112%	99.3%	105%	112%	118%	120%	130%	127%	128%	130%	142%	120%	80.7%	104%	113%	105%	118%	119%	117%	124%	128%	120%	122%	57.6%
COC(=O)N[C@H](C(=O)N[C@@H](Cc1ccccc1)[C@@H](O)CN(Cc1ccc(-c2ccccn2)cc1)NC(=O)[C@@H](NC(=O)OC)C(C)(C)C)C(C)(C)C	118%	107%	102%	107%	124%	118%	102%	105%	107%	101%	25.4%	102%	117%	116%	107%	112%	117%	114%	116%	122%	113%	108%	98.9%	111%	112%	113%	113%	107%	103%	99.2%	94.7%	98.2%	86.4%
c1ccc2c(-c3cnn4cc(-c5ccc(N6CCNCC6)cc5)cnc34)ccnc2c1	97.9%	103%	150%	144%	151%	141%	146%	126%	125%	121%	59.3%	88.7%	91.2%	161%	182%	191%	166%	142%	123%	111%	107%	2.89%	96%	96.6%	175%	169%	168%	164%	168%	138%	119%	120%	3.35%
CN(C(=O)c1ccc(F)cc1C(F)(F)F)C1CCN(c2nnc(-c3ccnn3C)c3ccccc23)CC1	74.9%	88.9%	77.9%	85.9%	89.2%	81.8%	82.1%	84.5%	79.4%	85.4%	47.3%	75.1%	83.3%	81.5%	76.2%	78.5%	81.5%	79.4%	71.7%	75.3%	82.8%	39.6%	73.7%	70.6%	72.8%	78.5%	79.9%	84.8%	75.9%	75.1%	74.3%	77.7%	38.2%
c1ccc2c(Oc3nc(Nc4ccc(N5CCOCC5)cc4)c4ncn(C5CCCCC5)c4n3)cccc2c1	116%	118%	126%	132%	126%	121%	126%	132%	134%	137%	130%																						
C[C@H]1[C@@H](CC(C[C@H]2O[C@@H]3O[C@]4(C)CC[C@H]5[C@H](C)CC[C@@H]([C@H]2C)[C@@]35OO4)C[S+](=O)([O-])c2ccc(COC(=O)N(C)C)cc2)O[C@@H]2O[C@]3(C)CC[C@H]4[C@H](C)CC[C@@H]1[C@@]24OO3	114%	111%	103%	117%	110%	102%	85.5%	55.5%	49.7%	39%	13.8%	114%	122%	113%	122%	113%	116%	81.7%	52%	53.2%	33.5%	21.8%	118%	110%	107%	110%	103%	106%	50.7%	41.7%	36.9%	39.7%	35%
CCOC(=O)c1ccc(C#Cc2ccc3c(c2)C(C)(C)CCS3)nc1	98.6%	108%	102%	105%	105%	118%	110%	110%	108%	107%	78.7%	95.2%	96.1%	106%	109%	108%	106%	101%	106%	106%	110%	94.5%	98.8%	99.9%	109%	110%	108%	107%	102%	113%	104%	96.1%	102%
COC1=CC=C2C(=CC=NC2=C1)OC3=CC=C(NC(=O)\C4=C(C)\N(CC(C)(C)O)N(C4=O)C5=CC=CC=C5)C=C3F	121%	123%	122%	123%	123%	132%	135%	132%	129%	122%	118%																						
CCC1=C(C)CN(C(=O)NCCc2ccc(S(=O)(=O)NC(=O)N[C@H]3CC[C@H](C)CC3)cc2)C1=O	94.6%	102%	98.9%	104%	107%	104%	102%	105%	97.7%	109%	109%	89.5%	101%	95.5%	92.9%	95.3%	111%	107%	101%	87.3%	113%	115%	90.7%	86%	90.7%	92.5%	103%	104%	98.5%	98.8%	94.8%	104%	108%
CO[C@@H]1[C@H](N(C)C(=O)c2ccccc2)C[C@H]2O[C@]1(C)n1c3ccccc3c3c4c(c5c6ccccc6n2c5c31)C(=O)NC4	113%	111%	113%	112%	121%	122%	122%	109%	17.9%	15%	18.9%	112%	110%	111%	117%	119%	122%	124%	106%	24.4%	28.8%	24.4%	111%	125%	117%	116%	123%	140%	126%	111%	35.7%	33.1%	30.2%
COc1cc(/C=C/C(=O)CC(=O)/C=C/c2ccc(O)c(OC)c2)ccc1O	99.1%	96.9%	108%	104%	110%	105%	109%	106%	96.4%	27.8%	5.27%	102%	104%	98.4%	113%	113%	110%	105%	104%	99.1%	61.2%	4.23%	98.8%	102%	105%	110%	104%	98.2%	104%	113%	102%	60.3%	4.18%
Cc1cc(SCc2sc(-c3ccc(C(F)(F)F)c(F)c3)nc2C)ccc1OCC(=O)O	106%	104%	100%	92.4%	105%	106%	106%	101%	100%	86.2%	91.5%	98.4%	102%	93.1%	81.6%	97.3%	99.7%	94.4%	93.4%	96.7%	89.5%	87.9%	93.3%	94.4%	96.7%	92.8%	89.5%	97%	93.6%	92.8%	98%	80.9%	76.3%
c1ccc(-c2nn3c(c2-c2ccnc4cc(OCCN5CCOCC5)ccc24)CCC3)nc1	120%	114%	111%	119%	112%	112%	97%	109%	103%	94.9%	84.5%	112%	117%	123%	115%	112%	96.2%	89.8%	106%	119%	73%	74.6%	110%	120%	122%	119%	112%	113%	112%	108%	102%	99.3%	84.8%
Cc1c(OCC(F)(F)F)ccnc1C[S+]([O-])c1nc2ccccc2[nH]1 (stereo unspecified)	99.9%	111%	109%	105%	108%	113%	113%	112%	118%	112%	107%	99%	100%	98.2%	94%	106%	115%	108%	112%	114%	101%	102%	102%	102%	102%	111%	104%	103%	110%	112%	108%	111%	96.2%
